Laboratory results taken from US10640457B2, “Histone acetyltransferase activators and uses thereof” (The Trustees of Columbia University in the City of New York, priority 2009, dated 2020).
pIC50: −log10 of the molar value. “And” between values parts separate entries of the source, which are not always exact repeats. Equal entries are not always repeated. “Also recorded” adds a separate entry of the source.

How the values were obtained:
acetylated H4 = assay: Western blot of hippocampal acetylated H4 after fear conditioning (TSA); type: in vivo, mice
Method: We will also test if defects seen in APP/PS1 mice, compared to WT littermates, are due to epigenetic effects. […] (each herein incorporated by reference in its entirety). Acetylation of H4 in hippocampus from WT and APP/PS1 animals was measured. Vehicle control solution was administered i.p. 2 hrs before FC training. 1 hr after contextual FC, the APP/PS1 and WT mice were euthanized and hippocampi were extracted. […] Whether HDAC inhibition might rescue the histone 4 acetylation levels defect observed in APP/PS1 mice was also tested. Injection of TSA (2 μg/g body weight; i.p) 2 hours prior to contextual fear conditioning enhanced H4 acetylation of APP/PS1 mice (FIG. 22). Without being bound by theory, AD is likely to be a disease with an epigenetic motif and HDAC inhibitors can elevate decreased levels of histone 4 in an AD mouse model.
APP/PS1 mice display a reduced endogenous level of histone 4 acetylation in response to a learning task. Given that HDAC inhibitors are known to acetylate other molecules besides histones [B49] […] We measured acetylation of H4 in hippocampus from 3 to 4 month old wild-type (WT) and APP/PS1 animals, after training for fear conditioning. […]

Aβ42-infused mice = assay: Two day radial arm water maze in Aβ-infused mice (YF2); type: in vivo
Source text: The task is a hybrid of the Morris Water Maze (MWM) and the radial arm land maze. This task is altered in Aβ-infused mice. The motivation for the animals is the immersion in water. The mouse needed to swim in 6 alleys (arms) radiating from a central area until it found a hidden (submerged) platform at the end of one of the arms, based on visual cues placed in the room. […] The first day of the protocol was a training day. Mice were trained to identify the platform location by alternating between a visible and a hidden platform in a goal arm. The final 3 trials on day 1 and all 15 trials on day 2 used a hidden escape platform to force mice to use spatial cues to identify the location of the goal arm.
To avoid learning limitations imposed by exhausting practice and to avoid fatigue that may result from consecutive trials, spaced practice training were established by running the mice in cohorts of 4 and alternating different cohorts through the 15 training trials over 3 hours testing periods each day. […] The number of incorrect arm entries (entries in arms with no platform) was counted. […] Failure to select an arm after 15 sec were counted as an error and the mouse was returned to the start arm. […]
Next, mice from the first cohort completed trials 7-12 again using the alternating visible-hidden platform location. […] For data analysis, averages for each mouse were calculated using blocks of 3 trials. […]

HDAC11 = molecular target: T1, HDAC11 (Homo sapiens, UniProt Q96DB2); assay: HDAC11 fluorogenic activity assay; conditions: for % Activity: Repeat1/Repeat2, listed as OA2
T1 sequence (Q96DB2 1-347): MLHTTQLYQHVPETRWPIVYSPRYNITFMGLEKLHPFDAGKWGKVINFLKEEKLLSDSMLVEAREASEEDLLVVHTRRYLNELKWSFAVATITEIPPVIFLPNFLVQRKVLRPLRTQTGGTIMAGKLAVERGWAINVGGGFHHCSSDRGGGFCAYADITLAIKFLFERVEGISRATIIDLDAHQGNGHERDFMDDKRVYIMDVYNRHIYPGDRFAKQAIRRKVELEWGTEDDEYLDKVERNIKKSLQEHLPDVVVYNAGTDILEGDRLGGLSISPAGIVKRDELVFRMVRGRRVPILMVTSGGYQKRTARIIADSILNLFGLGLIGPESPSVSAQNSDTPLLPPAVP

HDAC5FL = HDAC5FL (Homo sapiens, UniProt Q9UQL6); assay: HDAC5FL fluorogenic activity assay; conditions: Repeat1/Repeat2, listed as OA2
Sequence of HDAC5FL (Q9UQL6 whole entry): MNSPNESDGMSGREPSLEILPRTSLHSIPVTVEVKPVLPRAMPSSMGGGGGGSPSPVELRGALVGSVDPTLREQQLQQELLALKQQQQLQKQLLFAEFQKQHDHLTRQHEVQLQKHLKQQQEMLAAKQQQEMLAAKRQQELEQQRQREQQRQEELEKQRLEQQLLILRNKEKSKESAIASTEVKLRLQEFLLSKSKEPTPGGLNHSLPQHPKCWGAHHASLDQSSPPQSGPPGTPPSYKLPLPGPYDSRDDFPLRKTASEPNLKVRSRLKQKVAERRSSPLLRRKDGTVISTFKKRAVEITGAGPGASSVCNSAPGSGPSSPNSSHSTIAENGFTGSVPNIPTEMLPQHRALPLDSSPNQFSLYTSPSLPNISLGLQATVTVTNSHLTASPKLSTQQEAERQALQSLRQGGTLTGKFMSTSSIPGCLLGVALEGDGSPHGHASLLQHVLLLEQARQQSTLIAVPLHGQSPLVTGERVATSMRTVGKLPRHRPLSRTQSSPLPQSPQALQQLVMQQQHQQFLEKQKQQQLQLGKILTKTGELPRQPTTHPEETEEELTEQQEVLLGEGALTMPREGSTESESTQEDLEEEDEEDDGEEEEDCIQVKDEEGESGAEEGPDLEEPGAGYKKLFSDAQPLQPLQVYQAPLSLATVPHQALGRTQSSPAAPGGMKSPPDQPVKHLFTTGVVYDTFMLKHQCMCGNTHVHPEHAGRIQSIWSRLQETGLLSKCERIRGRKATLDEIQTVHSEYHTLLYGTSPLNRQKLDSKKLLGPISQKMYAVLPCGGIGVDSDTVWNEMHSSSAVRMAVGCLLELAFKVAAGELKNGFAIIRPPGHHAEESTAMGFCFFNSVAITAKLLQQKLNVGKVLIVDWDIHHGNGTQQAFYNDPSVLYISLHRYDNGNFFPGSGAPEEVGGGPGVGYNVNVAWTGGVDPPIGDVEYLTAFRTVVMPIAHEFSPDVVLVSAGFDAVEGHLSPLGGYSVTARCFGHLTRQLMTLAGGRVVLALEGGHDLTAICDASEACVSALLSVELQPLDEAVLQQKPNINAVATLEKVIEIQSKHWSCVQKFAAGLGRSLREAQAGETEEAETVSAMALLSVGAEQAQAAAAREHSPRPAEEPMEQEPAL

| Structure (SMILES) | H4 acetylation in hippocampus of APP/PS1 mice (acetylated H4; TSA 2 mg/kg i.p. 2 hours prior to fear conditioning, 1 hour after training) | H4 acetylation levels in WT mice (acetylated H4; TSA 2 mg/kg i.p., vs vehicle-treated WT) | RAWM performance, compound by itself (Aβ42-infused mice; 5 mg/kg i.p., no Aβ) | Aβ-induced reference memory impairment (RAWM errors) (Aβ42-infused mice; Aβ42-infused mice, i.p. 5 mg/kg 30 min prior to 1st and 7th trial, 5 mg/kg) | pIC50 (HDAC11) | % Activity (HDAC11; OA2 Log[nM] 0.5) | % Activity (HDAC11; OA2 Log[nM] 4.5) | % Activity (HDAC11; OA2 Log[nM] 5.3) | % Activity (HDAC5FL; OA2 Log[nM] 0.5) | % Activity (HDAC5FL; OA2 Log[nM] 1.0) | % Activity (HDAC5FL; OA2 Log[nM] 1.5) | % Activity (HDAC5FL; OA2 Log[nM] 2.0) | % Activity (HDAC5FL; OA2 Log[nM] 2.5) | % Activity (HDAC5FL; OA2 Log[nM] 3.0) | % Activity (HDAC5FL; OA2 Log[nM] 3.5) | % Activity (HDAC5FL; OA2 Log[nM] 4.0) | % Activity (HDAC5FL; OA2 Log[nM] 4.5) | % Activity (HDAC5FL; OA2 Log[nM] 5.3) |
| --- | --- | --- | --- | --- | --- | --- | --- | --- | --- | --- | --- | --- | --- | --- | --- | --- | --- | --- |
| CC(/C=C/C(=O)NO)=C\[C@@H](C)C(=O)c1ccc(N(C)C)cc1 [TSA, trichostatin A] | enhanced; also recorded: rescued; also recorded: enhancement | increased |  |  |  |  |  |  |  |  |  |  |  |  |  |  |  |  |
| CCOc1cccc(OCCN(C)C)c1C(=O)Nc1ccc(Cl)c(C(F)(F)F)c1 [YF2] |  |  | did not affect | ameliorated; also recorded: rescued | < 3.70 | 86.81% | 108.09% | 132.07% and 115.35% | 99.80% and 92.90% | 102.59% and 97.50% | 103.20% and 104.10% | 108.64% and 106.80% | 108.60% and 107.17% | 105.76% and 99.80% | 101.30% and 99.30% | 104.91% and 104.82% | 95.40% and 94.11% | 68.63% and 94.13% |
